Experimental data taken from article PMC7026418, “The kinase polypharmacology landscape of clinical PARP inhibitors” (Scientific Reports, 2020).
Where two headings read alike, the source gives them in different places.

Columns and labels:
Test in all cases: biochemical
Design in all cases: DiscoveRx KINOMEscan active site-directed competition binding; percent of control kinase bound to immobilised ligand
[1] = biological target: T1, ABL1(F317L)-phosphorylated (Homo sapiens, UniProt P00519, F317L)
T1 construct: phosphorylated

[2] = biological target: ALK (Homo sapiens, UniProt Q9UM73)
[3] = biological target: T2, ARK5 (Homo sapiens, UniProt O60285)
T2 construct: gene NUAK1
T2 sequence (O60285 1-661): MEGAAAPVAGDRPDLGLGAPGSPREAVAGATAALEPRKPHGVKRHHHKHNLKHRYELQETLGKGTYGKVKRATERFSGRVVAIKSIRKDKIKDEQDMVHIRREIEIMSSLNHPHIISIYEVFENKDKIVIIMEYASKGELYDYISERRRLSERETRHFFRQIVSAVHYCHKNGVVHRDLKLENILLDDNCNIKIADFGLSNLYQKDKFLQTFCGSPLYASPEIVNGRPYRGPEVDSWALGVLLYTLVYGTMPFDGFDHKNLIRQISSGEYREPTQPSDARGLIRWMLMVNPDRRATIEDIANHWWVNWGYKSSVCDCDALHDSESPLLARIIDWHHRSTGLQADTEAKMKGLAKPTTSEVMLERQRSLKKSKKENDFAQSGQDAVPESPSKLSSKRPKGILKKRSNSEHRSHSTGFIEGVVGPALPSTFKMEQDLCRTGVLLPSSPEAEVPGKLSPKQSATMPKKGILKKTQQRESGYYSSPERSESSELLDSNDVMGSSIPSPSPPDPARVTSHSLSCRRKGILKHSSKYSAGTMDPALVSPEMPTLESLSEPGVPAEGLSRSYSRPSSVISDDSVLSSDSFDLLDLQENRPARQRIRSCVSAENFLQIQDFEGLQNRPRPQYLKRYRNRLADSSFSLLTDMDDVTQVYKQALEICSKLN

[4] = biological target: T3, CDC2L2 (Homo sapiens, UniProt Q9UQ88)
T3 construct: gene CDK11A
T3 sequence (Q9UQ88 1-783): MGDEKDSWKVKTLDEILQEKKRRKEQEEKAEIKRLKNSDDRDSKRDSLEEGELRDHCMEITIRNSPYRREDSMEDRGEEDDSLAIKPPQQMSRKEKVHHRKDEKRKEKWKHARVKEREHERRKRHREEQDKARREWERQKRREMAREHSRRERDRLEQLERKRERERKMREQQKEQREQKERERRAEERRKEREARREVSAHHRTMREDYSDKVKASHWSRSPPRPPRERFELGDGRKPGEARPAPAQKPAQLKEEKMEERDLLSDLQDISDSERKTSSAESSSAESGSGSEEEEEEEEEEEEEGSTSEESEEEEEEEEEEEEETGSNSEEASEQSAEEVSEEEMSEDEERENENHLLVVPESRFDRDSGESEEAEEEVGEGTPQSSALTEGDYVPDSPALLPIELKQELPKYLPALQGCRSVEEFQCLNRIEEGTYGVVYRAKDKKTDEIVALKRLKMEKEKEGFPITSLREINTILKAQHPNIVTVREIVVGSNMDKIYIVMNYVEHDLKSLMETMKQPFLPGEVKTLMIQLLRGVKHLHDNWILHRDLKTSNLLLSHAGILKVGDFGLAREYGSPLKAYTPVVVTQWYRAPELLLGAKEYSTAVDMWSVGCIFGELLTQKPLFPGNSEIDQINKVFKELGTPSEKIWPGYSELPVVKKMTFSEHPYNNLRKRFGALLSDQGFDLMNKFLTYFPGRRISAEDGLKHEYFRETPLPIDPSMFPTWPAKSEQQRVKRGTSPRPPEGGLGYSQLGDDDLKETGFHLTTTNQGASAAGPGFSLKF

[5] = biological target: EGFR(L858R,T790M) (Homo sapiens, UniProt P00533, L858R/T790M)
[6] = biological target: ERBB3 (Homo sapiens, UniProt P21860)
[7] = biological target: FES (Homo sapiens, UniProt P07332)
[8] = biological target: KIT-autoinhibited (Homo sapiens, UniProt P10721)
[9] = biological target: PAK4 (Homo sapiens, UniProt O96013)
[10] = biological target: T4, PRKX (Homo sapiens, UniProt P51817)
T4 sequence (P51817 1-358): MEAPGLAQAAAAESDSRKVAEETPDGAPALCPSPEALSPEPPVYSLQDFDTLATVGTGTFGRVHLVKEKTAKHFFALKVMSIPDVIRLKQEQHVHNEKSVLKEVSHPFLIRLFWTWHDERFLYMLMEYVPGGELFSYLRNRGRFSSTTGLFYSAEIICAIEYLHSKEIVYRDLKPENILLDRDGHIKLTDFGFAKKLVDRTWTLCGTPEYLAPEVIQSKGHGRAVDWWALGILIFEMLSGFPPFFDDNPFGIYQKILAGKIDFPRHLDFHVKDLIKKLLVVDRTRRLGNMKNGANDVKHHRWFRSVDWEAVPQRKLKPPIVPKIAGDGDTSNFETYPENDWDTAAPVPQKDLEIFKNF

[11] = biological target: TLK2 (Homo sapiens, UniProt Q86UE8)
[12] = read-out: Niraparib (MK-4827) / %Ctrl @ 10000nM
[13] = read-out: Olaparib / %Ctrl @ 10000nM
[14] = read-out: Rucaparib / %Ctrl @ 10000nM, binding competition, % of control
[15] = read-out: Talazoparib (BMN 673) / %Ctrl @ 10000nM

TLK2, sequence (Q86UE8 whole entry): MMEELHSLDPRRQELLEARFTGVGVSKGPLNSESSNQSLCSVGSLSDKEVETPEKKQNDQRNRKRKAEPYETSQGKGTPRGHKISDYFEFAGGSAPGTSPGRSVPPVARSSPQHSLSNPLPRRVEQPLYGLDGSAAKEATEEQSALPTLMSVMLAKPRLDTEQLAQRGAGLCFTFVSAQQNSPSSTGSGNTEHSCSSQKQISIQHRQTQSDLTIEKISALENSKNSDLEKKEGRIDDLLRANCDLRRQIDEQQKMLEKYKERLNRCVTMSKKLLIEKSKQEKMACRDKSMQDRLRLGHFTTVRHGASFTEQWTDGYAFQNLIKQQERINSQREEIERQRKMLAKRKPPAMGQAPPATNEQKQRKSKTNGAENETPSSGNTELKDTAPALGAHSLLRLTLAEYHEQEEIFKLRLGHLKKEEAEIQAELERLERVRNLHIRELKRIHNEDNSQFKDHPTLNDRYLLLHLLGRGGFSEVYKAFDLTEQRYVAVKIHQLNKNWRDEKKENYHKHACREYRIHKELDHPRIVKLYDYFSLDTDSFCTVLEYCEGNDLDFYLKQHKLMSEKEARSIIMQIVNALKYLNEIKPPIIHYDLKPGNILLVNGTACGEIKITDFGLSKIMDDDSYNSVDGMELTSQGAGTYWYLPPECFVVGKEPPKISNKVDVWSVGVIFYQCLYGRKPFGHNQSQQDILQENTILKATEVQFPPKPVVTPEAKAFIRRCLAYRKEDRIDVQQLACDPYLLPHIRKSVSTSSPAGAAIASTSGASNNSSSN
EGFR(L858R,T790M), sequence (P00533 whole entry T790M/L858R): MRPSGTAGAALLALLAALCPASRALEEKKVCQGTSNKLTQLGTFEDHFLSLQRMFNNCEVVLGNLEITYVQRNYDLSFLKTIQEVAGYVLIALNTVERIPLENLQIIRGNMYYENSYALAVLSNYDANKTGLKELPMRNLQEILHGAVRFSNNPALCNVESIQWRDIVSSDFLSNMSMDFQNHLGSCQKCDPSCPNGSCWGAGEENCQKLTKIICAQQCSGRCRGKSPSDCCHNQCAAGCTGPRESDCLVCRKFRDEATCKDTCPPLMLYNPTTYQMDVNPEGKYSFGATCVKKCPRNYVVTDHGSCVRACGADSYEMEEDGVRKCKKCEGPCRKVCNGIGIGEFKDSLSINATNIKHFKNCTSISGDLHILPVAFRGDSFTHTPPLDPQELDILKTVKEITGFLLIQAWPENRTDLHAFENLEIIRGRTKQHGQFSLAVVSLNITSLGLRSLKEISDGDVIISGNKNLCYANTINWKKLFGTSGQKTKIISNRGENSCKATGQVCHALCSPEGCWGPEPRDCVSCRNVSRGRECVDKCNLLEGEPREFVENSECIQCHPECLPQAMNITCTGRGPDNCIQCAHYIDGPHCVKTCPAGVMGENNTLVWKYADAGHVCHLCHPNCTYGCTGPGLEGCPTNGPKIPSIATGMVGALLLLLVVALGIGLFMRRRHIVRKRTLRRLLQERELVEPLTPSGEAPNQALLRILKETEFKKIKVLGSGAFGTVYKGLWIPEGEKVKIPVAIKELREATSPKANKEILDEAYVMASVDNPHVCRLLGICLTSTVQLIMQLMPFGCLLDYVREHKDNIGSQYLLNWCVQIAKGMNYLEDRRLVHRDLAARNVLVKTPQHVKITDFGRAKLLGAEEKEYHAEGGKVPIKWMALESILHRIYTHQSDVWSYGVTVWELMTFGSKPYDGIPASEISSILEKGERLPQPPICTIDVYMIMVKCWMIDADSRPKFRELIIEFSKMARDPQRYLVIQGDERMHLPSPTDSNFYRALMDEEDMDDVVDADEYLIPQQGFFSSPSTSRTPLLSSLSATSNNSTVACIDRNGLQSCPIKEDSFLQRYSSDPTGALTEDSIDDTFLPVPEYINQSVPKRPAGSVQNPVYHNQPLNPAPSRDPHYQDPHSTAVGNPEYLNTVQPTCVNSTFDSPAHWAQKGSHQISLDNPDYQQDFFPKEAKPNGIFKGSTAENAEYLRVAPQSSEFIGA
KIT-autoinhibited, sequence (P10721 whole entry): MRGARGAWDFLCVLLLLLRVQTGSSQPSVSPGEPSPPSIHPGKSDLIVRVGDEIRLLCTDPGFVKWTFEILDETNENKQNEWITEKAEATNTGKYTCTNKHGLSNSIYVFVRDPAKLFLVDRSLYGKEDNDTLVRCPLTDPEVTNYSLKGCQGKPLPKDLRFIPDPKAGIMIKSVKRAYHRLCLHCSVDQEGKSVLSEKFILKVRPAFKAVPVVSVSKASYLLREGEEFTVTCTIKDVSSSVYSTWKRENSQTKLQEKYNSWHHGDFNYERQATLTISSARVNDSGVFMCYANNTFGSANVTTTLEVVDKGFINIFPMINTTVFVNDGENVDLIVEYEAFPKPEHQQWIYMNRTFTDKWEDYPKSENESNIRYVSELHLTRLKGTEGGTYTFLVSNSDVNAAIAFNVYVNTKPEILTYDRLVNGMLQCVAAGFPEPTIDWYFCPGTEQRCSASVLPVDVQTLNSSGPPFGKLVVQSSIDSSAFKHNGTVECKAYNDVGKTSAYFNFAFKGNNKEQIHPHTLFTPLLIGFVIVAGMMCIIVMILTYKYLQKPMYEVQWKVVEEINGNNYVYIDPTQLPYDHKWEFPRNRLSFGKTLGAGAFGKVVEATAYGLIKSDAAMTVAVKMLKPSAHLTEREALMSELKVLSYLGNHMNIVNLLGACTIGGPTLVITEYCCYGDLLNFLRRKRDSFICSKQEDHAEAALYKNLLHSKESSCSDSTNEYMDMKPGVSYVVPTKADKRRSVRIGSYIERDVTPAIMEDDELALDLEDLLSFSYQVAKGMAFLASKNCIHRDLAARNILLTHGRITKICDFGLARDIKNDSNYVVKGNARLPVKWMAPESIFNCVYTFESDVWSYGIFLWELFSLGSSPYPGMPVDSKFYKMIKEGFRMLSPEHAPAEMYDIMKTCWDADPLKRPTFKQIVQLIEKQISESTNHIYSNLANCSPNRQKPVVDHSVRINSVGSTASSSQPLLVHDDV
T1 sequence (P00519 whole entry F317L): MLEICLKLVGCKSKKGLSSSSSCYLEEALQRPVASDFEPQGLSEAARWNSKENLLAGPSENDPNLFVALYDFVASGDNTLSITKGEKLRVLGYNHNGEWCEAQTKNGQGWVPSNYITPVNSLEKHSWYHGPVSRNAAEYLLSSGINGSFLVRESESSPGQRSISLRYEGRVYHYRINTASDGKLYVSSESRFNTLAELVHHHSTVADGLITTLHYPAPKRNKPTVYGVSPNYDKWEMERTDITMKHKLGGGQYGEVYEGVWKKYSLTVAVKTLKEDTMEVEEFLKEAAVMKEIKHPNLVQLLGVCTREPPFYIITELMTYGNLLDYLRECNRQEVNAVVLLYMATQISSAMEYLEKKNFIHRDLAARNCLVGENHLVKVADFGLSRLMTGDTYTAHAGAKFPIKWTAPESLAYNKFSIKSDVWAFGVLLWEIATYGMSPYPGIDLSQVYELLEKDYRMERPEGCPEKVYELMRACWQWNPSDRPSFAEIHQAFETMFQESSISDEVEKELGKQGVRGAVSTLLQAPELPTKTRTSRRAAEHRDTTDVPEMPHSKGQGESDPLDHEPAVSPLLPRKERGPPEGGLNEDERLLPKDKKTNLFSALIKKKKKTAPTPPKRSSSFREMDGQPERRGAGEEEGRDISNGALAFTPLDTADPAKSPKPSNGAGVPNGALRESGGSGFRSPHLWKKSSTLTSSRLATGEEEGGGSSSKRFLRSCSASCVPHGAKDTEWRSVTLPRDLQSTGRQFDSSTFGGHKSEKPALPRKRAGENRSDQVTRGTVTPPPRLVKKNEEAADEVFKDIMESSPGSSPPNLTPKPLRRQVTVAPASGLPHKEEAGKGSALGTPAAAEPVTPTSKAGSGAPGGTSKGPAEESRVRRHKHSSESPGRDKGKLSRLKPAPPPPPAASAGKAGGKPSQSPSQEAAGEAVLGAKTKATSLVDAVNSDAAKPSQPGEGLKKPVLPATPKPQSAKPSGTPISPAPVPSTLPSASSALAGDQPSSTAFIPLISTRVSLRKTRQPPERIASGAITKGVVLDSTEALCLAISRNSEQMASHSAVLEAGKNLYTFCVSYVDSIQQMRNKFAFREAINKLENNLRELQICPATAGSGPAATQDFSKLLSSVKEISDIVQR
FES, sequence (P07332 whole entry): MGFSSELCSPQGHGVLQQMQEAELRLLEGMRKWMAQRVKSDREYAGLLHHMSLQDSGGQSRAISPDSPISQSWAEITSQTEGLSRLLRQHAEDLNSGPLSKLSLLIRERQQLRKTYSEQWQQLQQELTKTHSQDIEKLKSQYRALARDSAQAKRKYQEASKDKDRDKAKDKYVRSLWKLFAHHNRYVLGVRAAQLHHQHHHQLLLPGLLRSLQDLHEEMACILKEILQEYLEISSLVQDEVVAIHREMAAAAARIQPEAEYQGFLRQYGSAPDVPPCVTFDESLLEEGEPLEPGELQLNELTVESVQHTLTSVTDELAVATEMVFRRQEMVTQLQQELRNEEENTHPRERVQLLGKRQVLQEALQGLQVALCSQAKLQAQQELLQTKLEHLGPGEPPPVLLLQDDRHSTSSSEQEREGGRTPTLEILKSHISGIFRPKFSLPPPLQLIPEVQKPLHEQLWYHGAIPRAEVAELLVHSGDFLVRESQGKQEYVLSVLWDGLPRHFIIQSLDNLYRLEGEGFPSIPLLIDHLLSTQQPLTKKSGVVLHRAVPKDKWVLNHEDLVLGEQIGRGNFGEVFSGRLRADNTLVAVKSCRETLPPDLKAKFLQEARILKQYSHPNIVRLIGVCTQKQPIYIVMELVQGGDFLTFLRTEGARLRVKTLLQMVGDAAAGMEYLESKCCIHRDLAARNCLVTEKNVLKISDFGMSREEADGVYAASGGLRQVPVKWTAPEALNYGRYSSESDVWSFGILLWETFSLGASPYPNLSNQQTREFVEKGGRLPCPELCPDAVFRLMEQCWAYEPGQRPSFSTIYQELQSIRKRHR

NC(=O)c1cccc2cn(-c3ccc([C@@H]4CCCNC4)cc3)nc12 [Niraparib]
percent of control binding at 10 µM [1, 12]: 100% | percent of control binding at 10 µM [2, 12]: 98% | percent of control binding at 10 µM [3, 12]: 56% | percent of control binding at 10 µM [4, 12]: 83% | percent of control binding at 10 µM [5, 12]: 100% | percent of control binding at 10 µM [6, 12]: 100% | percent of control binding at 10 µM [7, 12]: 83% | percent of control binding at 10 µM [8, 12]: 85% | percent of control binding at 10 µM [9, 12]: 88% | percent of control binding at 10 µM [10, 12]: 96% | percent of control binding at 10 µM [11, 12]: 95%

O=C(c1cc(Cc2n[nH]c(=O)c3ccccc23)ccc1F)N1CCN(C(=O)C2CC2)CC1 [Olaparib]
percent of control binding at 10 µM [1, 13]: 95% | percent of control binding at 10 µM [2, 13]: 86% | percent of control binding at 10 µM [3, 13]: 99% | percent of control binding at 10 µM [4, 13]: 100% | percent of control binding at 10 µM [5, 13]: 93% | percent of control binding at 10 µM [6, 13]: 83% | percent of control binding at 10 µM [7, 13]: 92% | percent of control binding at 10 µM [8, 13]: 93% | percent of control binding at 10 µM [9, 13]: 100% | percent of control binding at 10 µM [10, 13]: 88% | percent of control binding at 10 µM [11, 13]: 95%

CNCc1ccc(-c2[nH]c3cc(F)cc4c3c2CCNC4=O)cc1 [Rucaparib]
percent of control binding at 10 µM [1, 14]: 74% | percent of control binding at 10 µM [2, 14]: 45% | percent of control binding at 10 µM [3, 14]: 100% | percent of control binding at 10 µM [4, 14]: 88% | percent of control binding at 10 µM [5, 14]: 70% | percent of control binding at 10 µM [6, 14]: 74% | percent of control binding at 10 µM [7, 14]: 94% | percent of control binding at 10 µM [8, 14]: 68% | percent of control binding at 10 µM [9, 14]: 80% | percent of control binding at 10 µM [10, 14]: 92% | percent of control binding at 10 µM [11, 14]: 84%

Cn1ncnc1[C@H]1c2n[nH]c(=O)c3cc(F)cc(c23)N[C@@H]1c1ccc(F)cc1 [Talazoparib]
percent of control binding at 10 µM [1, 15]: 50% | percent of control binding at 10 µM [2, 15]: 100% | percent of control binding at 10 µM [3, 15]: 100% | percent of control binding at 10 µM [4, 15]: 100% | percent of control binding at 10 µM [5, 15]: 100% | percent of control binding at 10 µM [6, 15]: 100% | percent of control binding at 10 µM [7, 15]: 98% | percent of control binding at 10 µM [8, 15]: 100% | percent of control binding at 10 µM [9, 15]: 89% | percent of control binding at 10 µM [10, 15]: 94% | percent of control binding at 10 µM [11, 15]: 84%
